Experimental findings from patent US20110195930A1, “PYRIDINE DERIVATIVE OR ITS SALT, PESTICIDE CONTAINING IT AND PROCESS FOR ITS PRODUCTION” (Ishihara Sangyo Kaisha, Ltd., priority 2008, published 2011) are described below.

Structures are written as SMILES.

For assay [1], the system named is Brown Planthopper (Nilaparvata lugens). The assay is described as follows: Test on controlling effects against brown planthopper (rice seedling dip). Conditions: rice seedling dipped about 10 seconds, second-third instar nymphs, 5th day after the release, 25° C. The format is in vivo. An excerpt:
Test on Controlling Effects Against Brown Planthopper (Nilaparvata lugens)
Rice seedling was dipped for about 10 seconds in an insecticidal solution adjusted to bring the concentration of the compound of the present invention to 200 ppm and then dried in air, its root was wrapped with a wet absorbent cotton, and the seedling was put into a test tube. Then, 10 second-third instar nymphs of Brown Planthopper were released therein, and the test tube was covered with a gauze and left in a constant temperature chamber at 25° C. with lightening. On the 5th day after the release, dead nymphs were counted, and the mortality was calculated by the following equation.
Mortality (%)=(number of dead insects/number of released insects)×100

The subject of assay [2] is Green Peach Aphid (Myzus persicae). The experiment in a line: Test on controlling effects against green peach aphid (leaf dip). The format is in vivo. As to conditions: foliar, 120 h, Japanese radish leaf dipped about 10 seconds, first instar nymphs, 5 days after the treatment, 25° C. An excerpt:
Test on Controlling Effects Against Green Peach Aphid (Myzus persicae)
A Japanese radish leaf was inserted in a test tube in which water was put, and about 20 first instar nymphs of green peach aphid were released on the leaf. On the next day, the number of nymphs parasitic on the leaf was counted, and then the leaf was dipped for about 10 seconds in an insecticidal solution adjusted to bring the concentration of the compound of the present invention to 200 ppm, dried in air and left in a constant temperature chamber at 25° C. with lightening. Dead nymphs were counted 5 days after the treatment, and the mortality was calculated by the following equation. The insects dropped from the leaf or presented toxic symptom were counted as dead insects.
Mortality (%)=(1−(number of survived insects/number of treated insects))×100

A word on the mortality: it is the percentage killed. The low end stands for a weak lethal effect, the high end for a strong lethal effect. Consider `CCON=C(c1ncc(C(F)(F)F)cc1Cl)n1cncn1` [Compound No. 10, [3-chloro-5-(trifluoromethyl)pyridin-2-yl](1H-1,2,4-triazol-1-yl)methanone O-oxime], for which the mortality at 200 ppm in assay [1] and in assay [2] was no less than 90% each time.

The compound `CC(C)ON=C(c1ncc(C(F)(F)F)cc1Cl)n1cncn1` [Compound No. 13, [3-chloro-5-(trifluoromethyl)pyridin-2-yl](1H-1,2,4-triazol-1-yl)methanone O-isopropyl oxime] yielded a mortality at 200 ppm in assay [1] of no less than 90%.

For the compound `CCON=C(c1ncc(C(F)(F)F)cc1Cl)n1ccnc1` [compound 11], the mortality at 200 ppm in assay [1] and in assay [2] was no less than 90% in each case.

Turning to `CCON=C(c1ncc(C(F)(F)F)cc1Cl)n1cnnc1` [compound 12], in assay [1], the mortality at 200 ppm was no less than 90%.

As for `CON=C(c1ncc(C(F)(F)F)cc1Cl)n1cncn1` [compound 14], the mortality at 200 ppm in assay [1] and in assay [2] was no less than 90% in each case.

`CCON=C(c1cccc(C)n1)n1cncn1` [compound 23] yielded a mortality at 200 ppm in assay [1] of no less than 90%.

`CCON=C(c1ccc(C(F)(F)F)cn1)n1cncn1` [compound 24]: the mortality at 200 ppm in assay [1] is no less than 90%.

With `CCON=C(c1ncccc1C(F)(F)F)n1cncn1` [compound 25], the mortality at 200 ppm in assay [1] is no less than 90%.

In turn, `CCON=C(c1cc(C(F)(F)F)ccn1)n1cncn1` [compound 26] gave a mortality at 200 ppm in assay [1] of no less than 90%.

As to `CCON=C(c1ncc(C(F)(F)F)cc1Br)n1cncn1` [compound 31], the mortality at 200 ppm in assay [1] and in assay [2] was no less than 90% each time.

As for `FC(F)(F)c1cnc(C(=NOCC2CC2)n2cncn2)c(Cl)c1` [compound 32], the mortality at 200 ppm in assay [1] and in assay [2] was no less than 90% throughout.

`CCON=C(c1ncc(C(F)(F)F)cc1C)n1cncn1` [compound 33, [3-methyl-5-(trifluoromethyl)pyridin-2-yl](1H-1,2,4-triazol-1-yl)methanone O-ethyl oxime]: the mortality at 200 ppm in assay [1] and in assay [2] was no less than 90% in each case.

Turning to `CCON=C(c1cccc(C(F)(F)F)n1)n1cncn1` [compound 83], the mortality at 200 ppm in assay [1] is no less than 90%.

The compound `CCON=C(c1nc(C(F)(F)F)ccc1Cl)n1cncn1` [compound 84] registered a mortality at 200 ppm in assay [1] of no less than 90%.
